The results in this text go back to patent EP1614683B1, “Indazole compounds and pharmaceutical compositions for inhibiting protein kinases, and methods for their use” (priority 1999, dated 2001).

Read-outs that look alike come from different tables or passages of the source.

The test system of data set [1] is lung cancer cells (line MV522). Put plainly: Cancer cell proliferation (MV522) assay. The class given is cell-based. The note with it: MV522; Table 1; read-out: MV522 IC50. As to the method:
The protocol for assessing cellular proliferation in cancer cells is similar to that used for assessments in HUVEC cells. Two thousand lung cancer cells (line MV522, acquired from American Tissue Cultural Collection) were seeded in growth media (RPMI1640 medium supplemented with 2 mM glutamine and 10% FBS). Cells are allowed to attach for 1 day prior to addition of test agents and /or vehicles. Cells are treated simultaneously with the same test agents used in the HUVEC assay. Cellular proliferation is quantified by MTT dye reduction assay 72 hours after exposure to test agents. The total length of the assay is 4 days vs. 5 for HUVEC cells because MV522 cells are not exposed to starvation medium.

Data set [2] in a line: in vivo. The note with it: mouse, plasma, po, pH 2.3; for Cmax: 50 mg/kg.
The target in data set [3] is LCK tyrosine kinase (Homo sapiens, UniProt P06239, C224D/P223M). Put plainly: LCK spectrophotometric assay. The class given is biochemical. The conditions noted are these: Table 1; compound concentration 1 µM; read-out: Lck-P* (% inhibition). The protocol:
The spectrophotometric assay was carried out as described above for VEGF-R2, except for the following changes in concentration: LCK = 60 nM, MgCl2 = 0 mM, poly(E4Y1) = 20 mM.

For data set [4], the system named is VEGF dependent retinal neovascularization. In words: Neonatal rat model of retinopathy of prematurity. Format: in vivo. The note with it: Model ROP, intravitreal.
Data set [5] deals with CDK4/Cyclin D3 complex (Homo sapiens, UniProt P11802). Put plainly: biochemical. The conditions noted are these: for inhibition at 1 µM: read-out: CDK4 * (% inhibition).
For data set [6], the target named is T1, phosphorylated Tie-2 (aa 775-1122) (Homo sapiens, UniProt Q02763).
T1 construct: 4 to 12 nM phosphorylated Tie-2 (aa 775-1122); made in house; host or cells: insect cells
Put plainly: TIE-2 spectrophotometric assay. Format: biochemical. The conditions noted are these: Table 5; 1 µM; bold values spectrophotometric assay, non-bolded DELFIA assay (bold not visible here); read-out: % Inhibition @ 1 µM Tie2-P. As to the method: This construct also carries a R774M mutation, which serves as the initiating methionine residue in translation.
The kinase-catalyzed production of ADP from ATP that accompanies phosphoryl transfer to the random copolymer poly(Glu4 Tyr) was coupled to the oxidation of NADH through the activities of pyruvate kinase (PK) and lactate dehydrogenase (LDH). NADH conversion to NAD* was monitored by the decrease in absorbance at 340 nm (ε = 6.22 cm^-1mM^-1) using a Beckman DU650 spectrophotometer. Typical reaction solutions contained 1 mM phosphoenolpyruvate, 0.24 mM NADH, 40 mM MgCl2, 5 mM DTT, 2.9 mg/mL poly(Glu4Tyr), 0.5 mM ATP, 15 units/mL PK, 15 units/mL LDH in 100 mM HEPES, pH 7.5. […]

Data set [7] can be described thus: in vitro. The class given is in vitro ADME, human. The note with it: human liver microsomes, 5 µM test compound, 37 °C, 2 h; for remaining at 2 h, 5 µM: read-out: % remain (HLM, 2 h). In a few lines:
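HLM diluted to 5 mg/mL in 100 mM KPO4, preincubated 10 min at 37 °C with NADPH-regenerating system. Compound (5 µM final) incubated at 37 °C in triplicate, sampled at 0 and 2 h into ice-cold acetonitrile, then LC-MS analysis.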
(Liver microsomes are a subcellular fraction often used to study metabolism.)

Data set [8] deals with human FGF-R1 (Homo sapiens, UniProt P11362, C488A/C584S/L457V). In words: FGF-R spectrophotometric assay. Format: biochemical. The note with it: Table 1; compound concentration 1 µM; read-out: FGF-P* (% inhibition). The protocol: The spectrophotometric assay was carried out as described above for VEGF-R2, except for the following changes in concentration: FGF-R = 50 nM, ATP = 2 mM, and poly(E4Y1) =15 mM.

Data set [9] concerns human umbilical vein endothelial cells (HUVEC). Put plainly: HUVEC proliferation assay (VEGF-stimulated, MTT). The conditions noted are these: Homo sapiens, HUVEC, Table 1. The class given is cell-based.
In data set [10] the target is CDK2/Cyclin A complex (Homo sapiens, UniProt P24941). In words: CDK2/Cyclin A assay ([32P]ATP incorporation into Rb fragment). The class given is biochemical. The conditions noted are these: for inhibition at 1 µM: read-out: CDK2 * (% inhibition).
The target of data set [11] is unphosphorylated VEGF-R2Δ50 (Homo sapiens, UniProt P35968, DEL940-989/E990V). In words: biochemical. The note with it: read-out: FLVK* (% inhibition).
The conditions of data set [12]: PO, 25 mg/kg, vehicle PEG400:H2O pH 2.3 30:70.
Data set [13] has as its system VEGF dependent retinal vascular development. In words: In vivo assay of retinal vascular development in neonatal rats. Further details: species or system rat. As to the method:
The development of the retinal vascular in rats occurs from postnatal day 1 to postnatal day 14 (P1-P14). […] To assess the ability of specific compounds to inhibit the activity of VEGF in vivo, compounds were formulated in an appropriate vehicle, usually 50% polyethylene glycol, average molecular weight 400 daltons, and 50% solution of 300 mM sucrose in deionized water. […] Six days after the intravitreal injection, the animals were sacrificed and the retinas dissected free from the remaining ocular tissue. […] The individual retinas are then flat-mount onto glass slides and examined to determine the extent of vascularization. […] The amount of vessel regression was used to assess the relative potency of the compounds after in vivo administration.
For more quantitative analysis of regression, images of ADPase-stained, flat-mounted retinas were captured with a digital camera attached to a dissecting microscope. Retinal images were then imported into an image analysis software (Image Pro Plus 4.0, Media Cybernetics, Silver Spring, MD). The software was employed to determine the percentage of the area of the retina that contained stained vessels. This value for the experimental eye was compared to that measured for the vehicle injected, contralateral eye from the same animal. The reduction in the vascular area seen in the eye that received compound as compared to the vehicle-injected eye was then expressed as the "percent regression" for that sample.

The mark [14] stands for this setting: 10 mg/ml, vehicle PEG/water 70:30.
Setting [15] is: + albumin, read-out: HUVEC + albumin IC50.

Sequence of human FGF-R1 (P11362 456-766 L457V/C488A/C584S): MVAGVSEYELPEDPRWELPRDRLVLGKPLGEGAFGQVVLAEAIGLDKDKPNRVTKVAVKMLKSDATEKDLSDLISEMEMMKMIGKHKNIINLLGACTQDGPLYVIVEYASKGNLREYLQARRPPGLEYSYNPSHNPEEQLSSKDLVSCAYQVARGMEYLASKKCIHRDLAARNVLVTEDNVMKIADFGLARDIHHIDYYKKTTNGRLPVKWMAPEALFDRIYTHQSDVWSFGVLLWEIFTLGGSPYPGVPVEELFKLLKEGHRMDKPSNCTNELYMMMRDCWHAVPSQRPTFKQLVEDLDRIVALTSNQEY
Sequence of LCK tyrosine kinase (P06239 223-509 P223M/C224D): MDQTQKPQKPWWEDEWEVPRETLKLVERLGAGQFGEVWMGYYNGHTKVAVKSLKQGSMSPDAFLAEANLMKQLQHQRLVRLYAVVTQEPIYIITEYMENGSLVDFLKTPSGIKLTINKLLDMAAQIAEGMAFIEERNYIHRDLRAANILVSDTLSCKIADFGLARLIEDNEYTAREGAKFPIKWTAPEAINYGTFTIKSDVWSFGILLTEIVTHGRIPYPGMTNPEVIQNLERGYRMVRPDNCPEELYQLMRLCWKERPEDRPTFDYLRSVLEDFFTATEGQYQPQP
Sequence of CDK4/Cyclin D3 complex (P11802 whole entry, the tested form may be a part): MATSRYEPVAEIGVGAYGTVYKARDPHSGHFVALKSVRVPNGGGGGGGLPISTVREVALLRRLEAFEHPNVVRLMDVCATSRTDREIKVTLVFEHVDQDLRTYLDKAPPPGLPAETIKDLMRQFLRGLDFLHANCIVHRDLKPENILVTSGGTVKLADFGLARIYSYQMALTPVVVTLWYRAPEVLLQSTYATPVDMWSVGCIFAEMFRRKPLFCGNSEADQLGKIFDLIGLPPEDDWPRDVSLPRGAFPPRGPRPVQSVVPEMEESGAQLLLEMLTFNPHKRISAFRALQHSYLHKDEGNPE
Sequence of CDK4/Cyclin D3 complex (P30281 whole entry partner, the tested form may be a part): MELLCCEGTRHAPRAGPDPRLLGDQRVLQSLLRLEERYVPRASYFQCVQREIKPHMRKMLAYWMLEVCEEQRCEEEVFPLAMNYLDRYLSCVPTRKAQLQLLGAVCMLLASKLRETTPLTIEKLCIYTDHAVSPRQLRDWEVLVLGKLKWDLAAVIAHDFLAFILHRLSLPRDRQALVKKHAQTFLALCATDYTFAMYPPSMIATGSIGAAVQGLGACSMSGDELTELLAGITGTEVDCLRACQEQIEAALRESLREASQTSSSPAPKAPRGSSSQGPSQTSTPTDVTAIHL
T1 sequence (Q02763 775-1122): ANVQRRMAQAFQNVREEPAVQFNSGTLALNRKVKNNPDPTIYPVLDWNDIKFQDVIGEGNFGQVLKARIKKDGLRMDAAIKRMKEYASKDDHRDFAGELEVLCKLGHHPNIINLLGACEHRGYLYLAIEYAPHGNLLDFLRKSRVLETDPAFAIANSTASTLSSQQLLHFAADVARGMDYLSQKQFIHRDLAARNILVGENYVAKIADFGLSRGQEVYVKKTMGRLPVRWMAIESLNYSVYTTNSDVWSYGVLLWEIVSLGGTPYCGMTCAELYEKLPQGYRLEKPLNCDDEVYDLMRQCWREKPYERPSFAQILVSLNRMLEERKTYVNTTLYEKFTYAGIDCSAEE
Sequence of unphosphorylated VEGF-R2Δ50 (P35968 with tags, fused parts or gaps DEL940-989/E990V limits assumed): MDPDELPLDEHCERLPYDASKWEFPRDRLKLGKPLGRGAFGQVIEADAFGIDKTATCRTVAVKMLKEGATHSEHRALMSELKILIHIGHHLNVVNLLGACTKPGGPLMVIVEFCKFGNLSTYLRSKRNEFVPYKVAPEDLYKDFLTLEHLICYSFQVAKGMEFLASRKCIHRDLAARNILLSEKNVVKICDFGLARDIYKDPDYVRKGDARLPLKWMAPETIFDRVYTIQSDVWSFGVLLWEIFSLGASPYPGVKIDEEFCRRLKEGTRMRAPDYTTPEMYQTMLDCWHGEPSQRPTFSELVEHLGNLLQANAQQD

The term IC50 denotes the concentration at which inhibition is half-maximal. The Cmax is the highest concentration seen after dosing. As a reminder, the inhibition is the relative decrease from the control value, in per cent. With `O=C(Nc1cccc(Oc2ccc3c(/C=C/c4ccccc4)n[nH]c3c2)c1)c1ccccc1` [4(a), N-[3-(3-Styryl-1H-indazol-6-yloxy)-phenyl]-benzamide], the 50% inhibitory concentration (IC50) in data set [1] was 6300 nM. This compound yielded a Cmax in data set [2] of 50 ng/mL. Moreover, the inhibition at 1 µM in [3] came out at 68%; in data set [5], 19%; in data set [6] it was 69%. Moreover, in data set [4] (setting [14]), the “Initial Evaluation” value was “++ (two pluses being judged to be approximately 25-75 % regression)”.

With `O=C(Nc1cccc(Oc2ccc3c(/C=C/c4ccc(Cl)cc4)n[nH]c3c2)c1)c1ccccc1` [6(a), N-(3-[3-[2-(4-Chloro-phenyl)-vinyl]-1H-indazol-6-yloxy}-phenyl)-benzamide], the IC50 in [1] was determined as 3500 nM; in [9] (setting [15]), 50 nM; in [9] (read-out: HUVEC IC50), 8.5 nM. In addition, the remaining at 2 h, 5 µM in data set [7] was determined as 69%. The results for the inhibition at 1 µM in data set [3] and in data set [8] were 33% and 67%, respectively. In addition, the “Initial Evaluation” value in [4] (5 mg/ml, vehicle PEG/water) is recorded as “++ (two pluses being judged to be approximately 25-75 % regression)”.

As to `Cc1cccc(C(=O)Nc2cccc(Oc3ccc4c(-c5cc6ccccc6[nH]5)n[nH]c4c3)c2)c1` [6(b), N-{3-[3-(2-Indolyl)-1H-indazol-6-yloxy]-phenyl}-3-methyl benzamide], the IC50 in [1] is 4000 nM; in data set [9] (setting [15]) it was 60 nM; in data set [9] (read-out: HUVEC IC50) it was 8 nM. The inhibition at 1 µM was determined as 81% in data set [3] and 95% in data set [8]. For the same compound, the “Initial Evaluation” value in data set [4] (setting [14]) is “++ (two pluses being judged to be approximately 25-75 % regression)”.

`O=C(Nc1cccc(C(=O)c2ccc3c(/C=C/c4ccccc4)n[nH]c3c2)c1)c1ccccc1` [19(b), N-[3-(3-Styryl-1H-indazole-6-carbonyl)-phenyl]-benzamide]: the 50% inhibitory concentration (IC50) in data set [1] came to 4300 nM; in data set [9] (setting [15]), 27 nM; in [9] (read-out: HUVEC IC50), 2.9 nM. Moreover, the remaining at 2 h, 5 µM in data set [7] came to 137%. In [2], this compound displayed a peak concentration (Cmax) of 30 ng/mL. For the same compound, the values for the inhibition at 1 µM in data set [3], in [8] and in data set [5] were 58%, 60% and 11%, respectively. In addition, the “Initial Evaluation” value in data set [4] (setting [14]) is “++ (two pluses being judged to be approximately 25-75 % regression)”.

For `C=C(c1cccc(NC(C)=O)c1)c1ccc2c(/C=C/c3ccccc3)n[nH]c2c1` [Example 23, 6-(1-(3-Acetamido-phenyl)-vinyl)-3-styryl-1H-indazole], the results for the IC50 in data set [1], in [9] (setting [15]) and in [9] (read-out: HUVEC IC50) were 5700 nM, 106 nM and 9.5 nM, respectively. Moreover, the inhibition at 1 µM was determined as 12% in data set [3], 14% in data set [8], 17% in [5] and 5% in data set [6].

In the case of `CCOc1cc(CO)c(-c2ccc3c(-c4nc5ccccc5[nH]4)n[nH]c3c2)cc1OC` [Reference Example 24(m), 3-1H-Benzoimidazol-2-yl-6-(2-(hydroxymethyl)-4-ethoxy-5-methozy-phenyl)-1H-indazole], the inhibition at 1 µM amounted to 16% in data set [5] and 17% in data set [10].

As for `Oc1ccc(-c2ccc3c(/C=C/c4ccccc4)n[nH]c3c2)cc1` [Reference Example 28(b), 6-(4-hydroxyphenyl)-3-E-styryl-1H-indazole], the inhibition at 1 µM in [11] came to 96%; in data set [5], 98%; in [10] it was 97%.

What is called Ki is the dissociation constant of the complex between target and ligand, obtained from inhibition or displacement. Take `Clc1cccc(/C=C/c2n[nH]c3cc(-c4ccncc4)ccc23)c1` [Reference Example 29(i), 6-pyrid-4-yl-3-E-[2-(3-chlorophenyl)ethenyl]-1H-indazole]: the Ki in data set [5] was 5000 nM; in data set [10] (Table 3, read-out: CDK2* (Ki)), 3100 nM.

In general, % Inhibition refers to how much of the control response was suppressed. With `O=C(Nc1cccc(Oc2ccc3c(/C=C/c4cccs4)n[nH]c3c2)c1)c1ccccc1` [Reference Example 30(a), 6-[3-benzamidophenoxy]-3-E-[2-(thien-2-yl)thenyl]-1H-indazole], the IC50 in [1] turned out to be 5700 nM; in data set [9] (setting [15]), 22 nM; in [9] (read-out: HUVEC IC50), 1.6 nM. Also, the “% remain (HLM, 2 h)” value in data set [7] was 64%. In addition, the inhibition at 1 µM in data set [3] came to 45%; in data set [8] it was 94%; in data set [6], 19%. In addition, in data set [4] (setting [14]), the “% Inhibition” value is given as 48%. In addition, the “Initial Evaluation” value in data set [4] (setting [14]) is on record as “++ (two pluses being judged to be approximately 25-75 % regression)”.

A word on the AUC: it is concentration integrated over time. Take `Cn1ccnc1C(=O)Nc1cccc(Oc2ccc3c(/C=C/c4ccccn4)n[nH]c3c2)c1` [Reference Example 31(e), 6-[3-((1-Methylimidazol-2-yl)carboxamido)phenoxy]-3-E-[2-(pyridin-2-yl)ethenyl]-1H-indazole]: the half-maximal inhibitory concentration (IC50) in data set [1] was determined as 8600 nM; in [9] (setting [15]), 6.2 nM. In addition, the “% remain (HLM, 2 h)” value in [7] came to 49%. In [2] (25 mg/kg), this compound returned an AUC of over 30300 ng·h/mL. In addition, the inhibition at 1 µM was 43% in data set [3] and 62% in [8]. In data set [12], this compound yielded a T1/2 of 13.1 h. For the same compound, in [13] (Model P8, intravitreal, 5 mg/ml, vehicle PEG/water 50:50), the “% Inhibition” value worked out at 24%.

As to `O=C(Nc1cccc(C(=O)c2ccc3c(-c4nc5ccccc5[nH]4)n[nH]c3c2)c1)c1ccccc1` [Reference Example 42(b), 6-(3-Benzamidobenzoyl)-3-(1H-benzoimidazol-2-yl)-1H-indazole], the concentration for half-maximal inhibition (IC50) in data set [1] turned out to be 2100 nM; in [9] (setting [15]) it was 29 nM; in data set [9] (read-out: HUVEC IC50), 2.1 nM. In addition, the “% remain (HLM, 2 h)” value in data set [7] came to 81%. The inhibition at 1 µM in [3] stood at 75%; in [8], 27%. Moreover, the “% Inhibition” value in data set [13] (Model P9, intravitreal, 10 mg/ml, vehicle PEG/water 70:30) stood at 40%.
